Source: PMC9611726, “Synthesis, Characterization and Biological Investigation of New N-Modified Spinorphin Analogs” (Pharmaceuticals, 2022)
Marks after values point to notes of the source that are not given here. Where a SMILES comes first, the peptide text is derived from it. [ ]: non-standard residue; d: D form. The star is where a group is joined. X1 = CCN(CC)c1ccc2c(c1)Oc1cc(N(CC)CC)ccc1C2c1ccccc1C(=O)*; Ac6c = NC1(C(=O)O)CCCCC1; Ac5c = NC1(C(=O)O)CCCC1

Legend:
[1] = Partition coefficient, shake-flask method, 1-octanol/phosphate buffer; assay type: physicochemical; details: shake-flask 1-octanol/phosphate buffer (NaH2PO4/Na2HPO4), pH 7.41 ± 0.01, 25 °C, system stirred 12 h, absorbance and emission read-out, standard additions
Excerpt: The effectiveness of biomolecules is mainly due to specific structural and physicochemical properties. In principle, the properties of peptides/proteins are very diverse and directly related to their bioactivity. […] With the manifestation of hydrophilic properties, the occurrence of a hydration process is possible; swelling, increasing their mass and volume, while it is possible to partially limit the solubility of the molecule, in which case the peptide molecule becomes more unstable. At the isoelectric point, peptides have the least ability to bind water, i.e., to hydrate; the hydration shell around the peptide molecules breaks down so that they combine to form, for example, aggregates. When the pH of the medium changes, the peptide macromolecule is charged, and its hydration capacity changes. […] Due to the obtained values, the studied compounds can be arranged in the following sequence from hydrophilic to hydrophobic (lipophilic): Rh-S > Rh-S5 > Rh-S6. This corresponds to the data from the morphology of the compound, where an analogous order of increasing porosity/hydrophilicity was found (Figure 3). It can be seen that the replacement of natural proline with unnatural steric restricted amino acids such as 1-aminocyclopentanecarboxylic acid (Ac5c) and 1-aminocyclohexanecarboxylic acid (Ac6c) (neuropeptides Rh-S5 and Rh-S6) leads to an increase in lipophilicity, which would assist passage through the brain barrier and increase the efficiency of the molecule. […]
The partition coefficients of the spinorphin-rhodamine derivatives were determined in a 1-octanol/phosphate buffer system (NaH2PO4/Na2HPO4, pH 7.41 ± 0.01). […] After separation, the absorbance and emission of the solutions of the two phases were measured and the amount of dissolved analyte was determined by the method of standard additions. […] The partition coefficient was calculated by the following equation: P = C^oct/buf/C^buf/oct, where C^oct/buf and C^buf/oct are the molar concentrations of the solute in the mutually saturated phases of 1-octanol and buffer.

[2] = system: 6-Hz-induced psychomotor seizures; assay: Six Hz psychomotor seizure test; assay type: in vivo, mice; details: i.c.v.; for % Protection / No. of Animals Protected/No. of Animals Tested: 6 Hz test, male ICR mice, test 10 min after administration; for anticonvulsant effect against 6-Hz-induced psychomotor seizures (in words): highest dose of 20 μg
Excerpt: (§1) The screeing test for anticonvulsant activity of drugs was perfomed on male ICR mice (25–30 g), purchased by the vivarium of the Institute of Neurobiology, BAS. They were kept in standard laboratory conditions and cages in groups of 5–6 per cage with ad libitum access to commercial pellets for rodents and water. After a week of adaptation, all mice were allocated in groups of 6 according to their treatment and test procedure. Each mouse was used only for one experiment. All procedures were performed in agreement with the European Communities Council Directive 2010/63/EU. The experimental design was approved by the Bulgarian Food Safety Agency (#300/№ 5888–0183).
(§2) […] The test for anticonvulsant activity was carried out 10 min after drug administration.
The test for assessment drug effect against psychomotor seizures was performed via a constant current device and corneal electrodes as previously. The criterion for assessing the anticonvulsant activity was restoration of normal posture 10 s after stimulation. Controls (mice treated with vehicle) were unable to resume normal behavior and stimulation trigger different stereotypic responses and automatism such as sniffing, vibrissae, locomotion, Straub tail, or clonic seizures.
(§3) For the 6-Hz test and MES a Fisher’s exact test (two-tailed) was applied. A one-way ANOVA of variance was used for the ivPTZ test and a Dunnet post hoc test in case of significance. Statistical significance was accepted at p ≤ 0.05 vs. control (Fisher’s exact test). The calculations were carried out with SigmaPlot program (11.0 version) and Graph Pad Prizm (Version 7.04) (GraphPad Software, San Diego, CA, USA).

tonic seizures (MES) = assay: Maximal electroshock test (MES test); assay type: in vivo, mice; details: i.c.v.; for % Mortality / % Protection / No. of Animals Protected/No. of Animals Tested: male ICR mice; for No. of Animals Protected/No. of Animals Tested: test 10 min after administration
Excerpt: as §1, §2
The MES test was carried out with the device used for the 6-Hz test according to the protocol reported in [38, 39]. The criterion for protection was accepted when the mouse […].
as §3

Candida albicans = assay: Antifungal activity test, paper disc diffusion; assay type: cell-based; details: C. albicans, Sabouraud Agar, 20 μL of 50 mg/mL, 24 h
Experimental: Tests were carried out on the Candida albicans fungus. The concentration of the extract tested was 50 mg/mL. The culture of each test fungus was taken to be tilted using an asepticose needle and rejuvenated in a liquid medium. In each medium, there is a spore density of […]. The prepared medium Sabouraud Agar (SA) in a petri dish with each culture was scratched on the top, then placed on the paper disc (paper disc), and then a peptide sample of 20 μL was placed on the paper disc. It was further incubated for 24 h and the resistance zone formed measured.

[3] = mice, p ≤ 0.05 compared to control

| Structure (SMILES) | logD [1] | % Protection ([2]; dose 5 µg/10 µL) | No. of Animals Protected/No. of Animals Tested ([2]; dose 5 µg/10 µL) | % Protection ([2]; dose 10 µg/10 µL) | No. of Animals Protected/No. of Animals Tested ([2]; dose 10 µg/10 µL) | % Protection ([2]; dose 20 µg/10 µL) | No. of Animals Protected/No. of Animals Tested ([2]; dose 20 µg/10 µL) | anticonvulsant effect against 6-Hz-induced psychomotor seizures (in words) [2, 3] | % Mortality (tonic seizures (MES); MES test, dose 5 µg/10 µL) [%] | % Protection (tonic seizures (MES); MES test, dose 5 µg/10 µL) | % Mortality (tonic seizures (MES); MES test, dose 10 µg/10 µL) [%] | % Protection (tonic seizures (MES); MES test, dose 10 µg/10 µL) | No. of Animals Protected/No. of Animals Tested (tonic seizures (MES); MES test, dose 10 µg/10 µL) | % Mortality (tonic seizures (MES); MES test, dose 20 µg/10 µL) [%] | % Protection (tonic seizures (MES); MES test, dose 20 µg/10 µL) | No. of Animals Protected/No. of Animals Tested (tonic seizures (MES); MES test, dose 20 µg/10 µL) | antifungal activity, diameter of the inhibitory zone (in words) (Candida albicans) | No. of Animals Protected/No. of Animals Tested (tonic seizures (MES); MES test, dose 5 µg/10 µL) | further results |
| --- | --- | --- | --- | --- | --- | --- | --- | --- | --- | --- | --- | --- | --- | --- | --- | --- | --- | --- | --- |
| CCN(CC)c1ccc2c(c1)Oc1cc(N(CC)CC)ccc1C2c1ccccc1C(=O)N[C@@H](CC(C)C)C(=O)N[C@H](C(=O)N[C@H](C(=O)N[C@@H](Cc1ccc(O)cc1)C(=O)NC1(C(=O)N[C@@H](Cc2c[nH]c3ccccc23)C(=O)N[C@H](C(N)=O)[C@@H](C)O)CCCC1)C(C)C)C(C)C [Rh-S5, rhodamineB-Leu-Val-Val-Tyr-Ac5c-Trp-Thr-NH2] (X1-LVVY[Ac5c]WT-NH2) | -0.168 | 17% | 1/6 | 33% | 2/6 | 83 * % | 5/6 | significant anticonvulsant effect | 17 | 41% | 17 | 42% | 5/12 | 17 | 67 * % | 4/6 | slightly higher than the negative control |  | protective potency against tonic seizures (in words) (tonic seizures (MES); MES test, mice, dose of 20 µg, p ≤ 0.05 compared to control): stronger protective potency compared to the heptapeptide Rh-S |
| CCN(CC)c1ccc2c(c1)Oc1cc(N(CC)CC)ccc1C2c1ccccc1C(=O)N[C@@H](CC(C)C)C(=O)N[C@H](C(=O)N[C@H](C(=O)N[C@@H](Cc1ccc(O)cc1)C(=O)N1CCC[C@H]1C(=O)N[C@@H](Cc1c[nH]c2ccccc12)C(=O)N[C@H](C(N)=O)[C@@H](C)O)C(C)C)C(C)C [Rh-S, rhodamineB-Leu-Val-Val-Tyr-Pro-Trp-Thr-NH2] (X1-LVVYPWT-NH2) | 0.54 | 67 * % | 4/6 | 100 * % | 6/6 | 67 * % | 4/6 |  | 50 | 50% | 0 | 50% | 3/6 | 33 | 67 * % | 4/6 | slightly higher than the negative control | 3/6 | protection against 6-Hz-induced psychomotor seizures (in words) ([2]; mice, at the three doses used (5, 10, and 20 μg), p ≤ 0.05 compared to control): significant protection |
| CCN(CC)c1ccc2c(c1)Oc1cc(N(CC)CC)ccc1C2c1ccccc1C(=O)N[C@@H](CC(C)C)C(=O)N[C@H](C(=O)N[C@H](C(=O)N[C@@H](Cc1ccc(O)cc1)C(=O)NC1(C(=O)N[C@@H](Cc2c[nH]c3ccccc23)C(=O)N[C@H](C(N)=O)[C@@H](C)O)CCCCC1)C(C)C)C(C)C [Rh-S6, rhodamineB-Leu-Val-Val-Tyr-Ac6c-Trp-Thr-NH2] (X1-LVVY[Ac6c]WT-NH2) | -0.197 | 33% | 2/6 | 50% | 3/6 | 67 * % | 4/6 | significant anticonvulsant effect | 0 | 100 * % | 0 | 100 * % | 6/6 | 0 | 100 * % | 6/6 | slightly higher than the negative control | 6/6 | mortality in the MES test (in words) (tonic seizures (MES); mice, at the three doses studied (5, 10 and 20 μg)): no mortality; protection in the MES test (tonic seizures (MES); mice, at the three doses studied (5, 10 and 20 μg), p ≤ 0.05 compared to control): 100% |
